Here are results for 17 compounds from patent publication US10100064B2, “Purine inhibitors of human phosphatidylinositol 3-kinase delta” (Merck Sharp & Dohme Corp., priority 2014, dated 2018).

The target in one assay is T1, PI3Kdelta (Homo sapiens, UniProt O00329).
T1 construct: purchased Upstate; Millipore 14-604
The experiment in a line: HTRF PI3K biochemical assay, delta isoform. The note with it: 0.3 nM enzyme, 100 uM ATP, 5 uM PIP2, form screened (Neutral or TFA salt) given per compound. The gist of the method:
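PI3Kδ at 0.3 nM with 100 uM ATP and 5 uM PIP2, 10-point 3-fold dilutions, 15 min enzyme–compound pre-incubation, then 1 h reaction at room temperature. PIP3 formation detected by HTRF displacement of biotin-PIP3 from GST-GRP1-PH (665/620 nm ratio). IC50 corrected using a PIP3 standard curve.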

A further assay deals with T2, PI3Kalpha (Homo sapiens, UniProt P42336).
T2 construct: purchased Upstate; Millipore 14-602
The experiment in a line: HTRF PI3K biochemical assay, alpha isoform (selectivity versus delta). The note with it: relative ratio PI3K-alpha IC50 value / PI3K-delta IC50 value. The method in brief:
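Recombinant PI3Kα (0.5 nM) pre-incubated 15 min with compound, then reacted 1 h at room temperature with 5 μM PIP2 and 100 μM ATP. After EDTA stop, PIP3 measured by HTRF displacement of biotin-PIP3 from GST-GRP1 PH domain (665/620 nm). 10-point dose response; IC50 corrected using a PIP3 standard curve.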

Structures are written as SMILES.

T2 sequence (P42336 whole entry): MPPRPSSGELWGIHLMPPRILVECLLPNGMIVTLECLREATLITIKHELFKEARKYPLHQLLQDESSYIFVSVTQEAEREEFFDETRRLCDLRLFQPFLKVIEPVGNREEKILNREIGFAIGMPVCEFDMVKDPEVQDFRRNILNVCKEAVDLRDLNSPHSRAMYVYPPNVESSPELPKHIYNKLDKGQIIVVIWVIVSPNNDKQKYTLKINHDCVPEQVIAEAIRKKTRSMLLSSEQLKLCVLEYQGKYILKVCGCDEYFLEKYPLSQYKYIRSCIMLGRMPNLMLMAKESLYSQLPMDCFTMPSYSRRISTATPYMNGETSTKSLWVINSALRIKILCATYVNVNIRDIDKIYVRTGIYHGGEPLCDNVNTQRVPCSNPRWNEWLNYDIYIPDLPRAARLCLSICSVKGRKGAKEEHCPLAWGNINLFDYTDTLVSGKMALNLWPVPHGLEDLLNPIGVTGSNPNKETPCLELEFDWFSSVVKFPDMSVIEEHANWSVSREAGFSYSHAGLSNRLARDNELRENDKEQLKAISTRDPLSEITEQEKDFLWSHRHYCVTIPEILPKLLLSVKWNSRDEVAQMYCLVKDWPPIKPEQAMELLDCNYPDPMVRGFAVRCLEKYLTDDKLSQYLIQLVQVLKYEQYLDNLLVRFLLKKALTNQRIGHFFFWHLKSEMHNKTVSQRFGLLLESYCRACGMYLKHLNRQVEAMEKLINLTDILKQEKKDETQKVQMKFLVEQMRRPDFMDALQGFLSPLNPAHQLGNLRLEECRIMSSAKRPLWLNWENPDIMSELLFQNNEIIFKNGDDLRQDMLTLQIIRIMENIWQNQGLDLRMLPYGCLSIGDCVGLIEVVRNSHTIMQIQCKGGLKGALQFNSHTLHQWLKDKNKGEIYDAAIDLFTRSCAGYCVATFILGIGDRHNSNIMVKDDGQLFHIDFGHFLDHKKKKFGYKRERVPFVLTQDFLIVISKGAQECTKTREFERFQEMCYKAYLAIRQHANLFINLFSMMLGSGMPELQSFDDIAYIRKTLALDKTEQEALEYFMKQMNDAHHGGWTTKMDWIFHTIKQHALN
T2 sequence (P27986 whole entry partner): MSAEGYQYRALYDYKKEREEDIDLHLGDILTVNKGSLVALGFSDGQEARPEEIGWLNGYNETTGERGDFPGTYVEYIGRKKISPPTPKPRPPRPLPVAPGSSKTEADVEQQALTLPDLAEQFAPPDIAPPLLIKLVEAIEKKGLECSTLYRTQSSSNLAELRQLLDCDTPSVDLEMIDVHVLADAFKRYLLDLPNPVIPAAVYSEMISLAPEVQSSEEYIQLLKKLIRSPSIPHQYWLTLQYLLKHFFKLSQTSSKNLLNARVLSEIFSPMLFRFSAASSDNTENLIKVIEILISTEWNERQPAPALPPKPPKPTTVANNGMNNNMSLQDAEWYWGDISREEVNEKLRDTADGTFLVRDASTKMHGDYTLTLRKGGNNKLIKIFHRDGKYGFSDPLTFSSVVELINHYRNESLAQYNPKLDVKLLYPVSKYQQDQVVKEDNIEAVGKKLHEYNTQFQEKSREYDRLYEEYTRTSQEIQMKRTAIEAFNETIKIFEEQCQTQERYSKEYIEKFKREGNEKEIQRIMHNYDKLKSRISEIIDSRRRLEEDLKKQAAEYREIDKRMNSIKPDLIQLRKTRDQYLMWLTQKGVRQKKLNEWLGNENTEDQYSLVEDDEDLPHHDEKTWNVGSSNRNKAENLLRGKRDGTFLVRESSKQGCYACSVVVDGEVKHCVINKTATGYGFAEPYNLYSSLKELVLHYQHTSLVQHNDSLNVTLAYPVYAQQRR
T1 sequence (O00329 whole entry): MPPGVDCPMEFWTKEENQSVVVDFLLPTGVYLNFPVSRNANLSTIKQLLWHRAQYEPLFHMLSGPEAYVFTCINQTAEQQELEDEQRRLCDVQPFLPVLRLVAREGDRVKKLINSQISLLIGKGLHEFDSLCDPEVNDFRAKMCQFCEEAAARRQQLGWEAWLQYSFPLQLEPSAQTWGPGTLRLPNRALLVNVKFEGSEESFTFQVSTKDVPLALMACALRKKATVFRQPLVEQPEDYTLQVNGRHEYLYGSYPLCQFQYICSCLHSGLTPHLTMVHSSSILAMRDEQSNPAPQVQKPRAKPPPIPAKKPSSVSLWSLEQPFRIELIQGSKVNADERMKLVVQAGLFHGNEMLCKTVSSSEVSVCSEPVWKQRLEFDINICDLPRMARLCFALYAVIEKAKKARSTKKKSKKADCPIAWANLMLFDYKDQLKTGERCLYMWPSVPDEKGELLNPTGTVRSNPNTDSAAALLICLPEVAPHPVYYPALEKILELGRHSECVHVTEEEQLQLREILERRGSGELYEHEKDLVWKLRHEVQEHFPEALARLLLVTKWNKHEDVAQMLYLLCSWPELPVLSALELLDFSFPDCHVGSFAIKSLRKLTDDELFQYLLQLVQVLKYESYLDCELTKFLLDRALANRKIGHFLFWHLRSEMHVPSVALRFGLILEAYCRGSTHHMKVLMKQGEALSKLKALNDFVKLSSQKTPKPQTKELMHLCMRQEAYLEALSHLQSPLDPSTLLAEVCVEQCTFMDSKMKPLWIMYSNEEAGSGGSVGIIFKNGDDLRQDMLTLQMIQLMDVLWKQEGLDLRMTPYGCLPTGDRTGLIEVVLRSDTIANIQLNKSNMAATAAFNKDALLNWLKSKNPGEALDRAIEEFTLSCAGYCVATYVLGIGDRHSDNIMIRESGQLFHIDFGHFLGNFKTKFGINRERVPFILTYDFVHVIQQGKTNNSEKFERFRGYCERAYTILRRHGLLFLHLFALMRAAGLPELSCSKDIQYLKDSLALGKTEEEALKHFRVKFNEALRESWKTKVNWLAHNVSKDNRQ
T1 sequence (P27986 whole entry partner): as the sequence (P27986 whole entry partner) above

One may read the IC50 as the point on the concentration scale where inhibition reaches its midpoint. On to `CCn1c(-c2cnc(C)nc2)nc2c(OC3CCc4nnc(C5CC5)n4C3)ncnc21` (single isomer, unassigned) [Compound 1-32, (S or R)-6-{[3-cyclopropyl-5,6,7,8-tetrahydro[1,2,4]triazolo[4,3-a]pyridin-6-yl]oxy}-9-ethyl-8-(2-methylpyrimidin-5-yl)-9H-purine], for which the IC50 on PI3Kdelta was determined as 4.4 nM. Further, the “Selectivity versus PI3Kalpha” value at PI3Kalpha is above 10.

As to `CCn1c(-c2cnc(C)nc2)nc2c(OC3CCc4nnc(C(C)C)n4C3)ncnc21` (single isomer, unassigned) [Compound 1-33, (S or R)-9-ethyl-6-{[3-(1-methylethyl)-5,6,7,8-tetrahydro[1,2,4]triazolo[4,3-a]pyridin-6-yl]oxy}-8-(2-methylpyrimidin-5-yl)-9H-purine], the IC50 at PI3Kdelta was 35 nM. At PI3Kalpha, the “Selectivity versus PI3Kalpha” value is above 10.

Consider `CCn1c(-c2cnc(C)nc2)nc2c(OC3CCc4nnc(C(C)C)n4C3)ncnc21` (single isomer, unassigned) [Compound 1-34, (S or R)-9-ethyl-6-{[3-(1-methylethyl)-5,6,7,8-tetrahydro[1,2,4]triazolo[4,3-a]pyridin-6-yl]oxy}-8-(2-methylpyrimidin-5-yl)-9H-purine], for which the IC50 on PI3Kdelta worked out at 4.1 nM. In addition, the “Selectivity versus PI3Kalpha” value at PI3Kalpha is above 10.

In the case of `CCn1c(-c2cnc(C)nc2)nc2c(OC3CCc4nnc(C5CCC5)n4C3)ncnc21` (single isomer, unassigned) [Compound 1-35, (S or R)-6-{[3-cyclobutyl-5,6,7,8-tetrahydro[1,2,4]triazolo[4,3-a]pyridin-6-yl]oxy}-9-ethyl-8-(2-methylpyrimidin-5-yl)-9H-purine], the half-maximal inhibitory concentration (IC50) at PI3Kdelta came to 19 nM. The “Selectivity versus PI3Kalpha” value at PI3Kalpha is above 10.

As to `CCn1c(-c2cnc(C)nc2)nc2c(OC3CCc4nnc(C5CCC5)n4C3)ncnc21` (single isomer, unassigned) [Compound 1-36, (S or R)-6-{[3-cyclobutyl-5,6,7,8-tetrahydro[1,2,4]triazolo[4,3-a]pyridin-6-yl]oxy}-9-ethyl-8-(2-methylpyrimidin-5-yl)-9H-purine], the IC50 on PI3Kdelta was 1.1 nM. For the same compound, the “Selectivity versus PI3Kalpha” value on PI3Kalpha is recorded as above 10.

As for `CCn1c(-c2cnc(C)nc2)nc2c(NC3CCc4[nH]nc(C5CC5)c4C3)ncnc21` (single isomer, unassigned) [Compound 2-2, (S or R)-N-[3-cyclopropyl-4,5,6,7-tetrahydro-1H-indazol-5-yl]-9-ethyl-8-(2-methylpyrimidin-5-yl)-9H-purin-6-amine], the IC50 at PI3Kdelta amounted to 2.9 nM. Also, the “Selectivity versus PI3Kalpha” value at PI3Kalpha was above 10.

In the case of `CCn1c(-c2cnc(C)nc2)nc2c(NC3CCc4[nH]nc(C(C)C)c4C3)ncnc21` (single isomer, unassigned) [Compound 2-4, (S or R)-9-ethyl-N-[3-(1-methylethyl)-4,5,6,7-tetrahydro-1H-indazol-5-yl]-8-(2-methylpyrimidin-5-yl)-9H-purin-6-amine], on PI3Kdelta, the IC50 was determined as 1.8 nM. Besides, the “Selectivity versus PI3Kalpha” value on PI3Kalpha is reported as above 10.

On to `CCn1c(-c2cnc(C)nc2)nc2c(NC3(C)CCc4[nH]nc(C(C)C)c4C3)ncnc21` (single isomer, unassigned) [Compound 2-5, (S or R)-9-ethyl-N-[5-methyl-3-(1-methylethyl)-4,5,6,7-tetrahydro-1H-indazol-5-yl]-8-(2-methylpyrimidin-5-yl)-9H-purin-6-amine], for which, at PI3Kdelta, the 50% inhibitory concentration (IC50) worked out at 4.1 nM. At PI3Kalpha, the “Selectivity versus PI3Kalpha” value is given as above 10.

On to `CCn1c(-c2cnc(C)nc2)nc2c(NC3(C)CCc4[nH]nc(C(C)C)c4C3)ncnc21` (single isomer, unassigned) [Compound 2-6, (S or R)-9-ethyl-N-[5-methyl-3-(1-methylethyl)-4,5,6,7-tetrahydro-1H-indazol-5-yl]-8-(2-methylpyrimidin-5-yl)-9H-purin-6-amine], for which the IC50 on PI3Kdelta amounted to 21 nM. The “Selectivity versus PI3Kalpha” value on PI3Kalpha is reported as above 10.

Turning to `CCn1c(-c2ccc(C(F)(F)F)cc2)nc2c(NC3CCc4[nH]nc(C(C)C)c4C3)ncnc21` (single isomer, unassigned) [Compound 2-7, (S or R)-9-ethyl-N-[3-(1-methylethyl)-4,5,6,7-tetrahydro-1H-indazol-5-yl]-8-[4-(trifluoromethyl)phenyl]-9H-purin-6-amine], the IC50 at PI3Kdelta worked out at 1.7 nM. Further, the “Selectivity versus PI3Kalpha” value at PI3Kalpha is recorded as above 10.

Consider `CCn1c(-c2ccc(C(F)(F)F)cc2)nc2c(NC3CCc4[nH]nc(C(C)C)c4C3)ncnc21` (single isomer, unassigned) [Compound 2-8, (S or R)-9-ethyl-N-[3-(1-methylethyl)-4,5,6,7-tetrahydro-1H-indazol-5-yl]-8-[4-(trifluoromethyl)phenyl]-9H-purin-6-amine], for which the IC50 at PI3Kdelta came to 210 nM. Besides, the “Selectivity versus PI3Kalpha” value on PI3Kalpha was above 10.

With `CCCn1nc(C(C)C)c2c1CCC(Nc1ncnc3c1nc(-c1cnc(C)nc1)n3CC)C2` (single isomer, unassigned) [Compound 2-10, (S or R)-9-ethyl-N-[3-(1-methylethyl)-1-propyl-4,5,6,7-tetrahydro-1H-indazol-5-yl]-8-(2-methylpyrimidin-5-yl)-9H-purin-6-amine], the 50% inhibitory concentration (IC50) at PI3Kdelta was 6.1 nM. Also, the “Selectivity versus PI3Kalpha” value on PI3Kalpha was above 10.

In the case of `CCn1c(-c2cnc(C)nc2)nc2c(NC3CCc4c(c(C(C)C)nn4CCO)C3)ncnc21` (single isomer, unassigned) [Compound 2-11, (S or R)-2-[5-{[9-ethyl-8-(2-methylpyrimidin-5-yl)-9H-purin-6-yl]amino}-3-(1-methylethyl)-4,5,6,7-tetrahydro-1H-indazol-1-yl]ethanol], at PI3Kdelta, the IC50 was found to be 2.1 nM. The “Selectivity versus PI3Kalpha” value at PI3Kalpha was above 10.

`CCn1c(-c2cnc(C)nc2)nc2c(NC3CCc4c(c(C(C)C)nn4C(=O)OC)C3)ncnc21` (single isomer, unassigned) [Compound 2-19, (S or R)-methyl 5-{[9-ethyl-8-(2-methylpyrimidin-5-yl)-9H-purin-6-yl]amino}-3-(1-methylethyl)-4,5,6,7-tetrahydro-1H-indazole-1-carboxylate]: at PI3Kdelta, the IC50 turned out to be 1 nM. In addition, the “Selectivity versus PI3Kalpha” value at PI3Kalpha is given as above 10.

With `CCn1c(-c2cnc(C)nc2)nc2c(NC3CCc4nn(C)c(C(C)C)c4C3)ncnc21` (single isomer, unassigned) [Compound 2-24, (S or R)-9-ethyl-N-[(5S)-2-methyl-3-(1-methylethyl)-4,5,6,7-tetrahydro-2H-indazol-5-yl]-8-(2-methylpyrimidin-5-yl)-9H-purin-6-amine], the half-maximal inhibitory concentration (IC50) at PI3Kdelta is 41 nM. For the same compound, the “Selectivity versus PI3Kalpha” value on PI3Kalpha is above 10.

Consider `CCn1c(-c2cnc(C)nc2)nc2c(NC3CCc4c(c(C(C)C)nn4C)C3)ncnc21` (single isomer, unassigned) [Compound 2-25, (S or R)-9-ethyl-N-[(5S)-1-methyl-3-(1-methylethyl)-4,5,6,7-tetrahydro-1H-indazol-5-yl]-8-(2-methylpyrimidin-5-yl)-9H-purin-6-amine], for which the IC50 at PI3Kdelta is 14 nM. Besides, at PI3Kalpha, the “Selectivity versus PI3Kalpha” value is reported as above 10.

Take `CCn1c(-c2cnc(C)nc2)nc2c(NC3CCc4cnc(C5CC5)n4C3)ncnc21` (single isomer, unassigned) [Compound 3-1, (S or R)-N-[3-cyclopropyl-5,6,7,8-tetrahydroimidazo[1,5-a]pyridin-6-yl]-9-ethyl-8-(2-methylpyrimidin-5-yl)-9H-purin-6-amine]: at PI3Kdelta, the IC50 stood at 11 nM. Also, at PI3Kalpha, the “Selectivity versus PI3Kalpha” value was above 10.
